# Test results published in patent publication US20260334439A1, “BCAT2 INHIBITORS” (Agios Pharmaceuticals, Inc., priority 2023, published 2026).
# Biological target: T1, BCAT2 (Homo sapiens, UniProt O15382)
# T1 sequence (O15382 28-392): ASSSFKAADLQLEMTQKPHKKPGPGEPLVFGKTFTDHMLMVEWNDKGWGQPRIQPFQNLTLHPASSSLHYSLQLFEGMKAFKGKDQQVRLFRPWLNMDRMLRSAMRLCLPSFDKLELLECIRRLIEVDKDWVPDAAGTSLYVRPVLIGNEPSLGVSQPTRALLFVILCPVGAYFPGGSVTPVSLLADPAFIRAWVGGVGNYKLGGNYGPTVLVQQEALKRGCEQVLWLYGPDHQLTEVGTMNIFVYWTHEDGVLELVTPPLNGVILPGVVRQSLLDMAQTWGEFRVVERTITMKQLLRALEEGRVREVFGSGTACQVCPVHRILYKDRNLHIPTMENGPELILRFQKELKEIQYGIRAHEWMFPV
# Assay: BCAT2 in vitro enzyme inhibition assay (hBCAT2, glutamate dehydrogenase/diaphorase/resazurin coupled fluorescence read)
# Format: biochemical
# Details: hBCAT2, 1 h preincubation at 25° C., one hour reaction; average where tested multiple times
# Procedure: • 2×Buffer: 200 mM Tris pH 8.0, 300 mM NaCl, 0.1% BSA • 1.67×hBCAT2 Enzyme Mix: 0.33 μg/mL hBCAT2, 1× Buffer • 2.5×Substrate Mix: 460 µM L-leucine, 420 µM α-KetoGlutarate, 10 U/mL glutamate dehydrogenase, 10 mM NAD, […] diaphorase, […] Resazurin
# BCAT2 enzyme stock solution was diluted to prepare a 1.67×hBCAT2 Enzyme Mix. 1 μL of test compound was first added to the reaction wells followed by 30 μL of 1.67×hBCAT2 Enzyme Mix and incubated at room temperature (25° C.) for one hour. Meanwhile the Substrate Mix was prepared. The reaction was initiated by the addition of 20 μL of the 2.5×Substrate Mix, bringing the final reaction mix of all components to 1×. Reactions were quenched after one hour by the addition of 25 μL of 6% SDS and reaction progress was measured via fluorescence read (Ex 540/Em 590).
# Test compounds were prepared at 50×final concentration in DMSO, 1 to 3 dilutions were made for 10 points. The compounds were added to the assay as a 1 to 50 dilution (1 μL in 50 μL) to yield a top assay final concentration of 100 μM, decreasing 3-fold for 10 points. Each compound dilution series test also included an assay max (1 μL DMSO Added in lieu of compound, Full Reaction Components Included) and Min (1 μL DMSO Added in lieu of compound, 30 μl of 1.67×hBCAT2 Enzyme Mix replated by 30 μL of 1×Buffer). All tests were performed in technical duplicate.
# Where a compound was tested multiple times, the average value of the tests is reported.
row,Compound,IC50 [nM]
1,"CO[C@@H]1C[C@@H](NC(=O)c2cc(F)ccn2)C[C@@H](n2c(-c3ccccc3F)nc3ccc(-c4nc[nH]n4)cc32)C1 [Example 220, 4-fluoro-N-((1R,3S,5S)-3-(2-(2-fluorophenyl)-6-(1H-1,2,4-triazol-3-yl)-1H-benzo[d]imid-azol-1-yl)-5-methoxycyclohex-yl)picolinamide]",> 1000
2,"CC(=O)N1C[C@@H](N2Cc3ccc(F)cc3C2=O)C[C@@H](n2c(-c3ccccc3F)nc3cnc(-n4nccn4)cc32)C1 [Example 199, 2-((3S,5R)-1-acetyl-5-(2-(2-fluorophenyl)-6-(2H-1,2,3-triazol-2-yl)-1H-imidazo[4,5-c]pyridin-1-yl)piperidin-3-yl)-6-fluoroisoindolin-1-one]",< 100
3,"CN1C[C@H](NC(=O)c2cc(F)ccn2)C[C@H](n2c(-c3ccccc3OCCO)nc3ccc(-c4ncccn4)cc32)C1 [Example 236, 4-fluoro-N-((3R,5S)-5-(2-(2-(2-hydroxyethoxy)phenyl)-6-(pyr-imidin-2-yl)-1H-benzo[d]imid-azol-1-yl)-1-methylpiperidin-3-yl)picolinamide]",100 to 500
4,"CO[C@H]1C[C@H](NC(=O)c2cc(F)ccn2)C[C@H](n2c(-c3ccccc3OCCO)nc3ccc(-c4ncccn4)cc32)C1 [Example 224, 4-fluoro-N-((1R,3S,5S)-3-(2-(2-(2-hydroxyethoxy)phenyl)-6-(pyrimidin-2-yl)-1H-benzo[d]imidazol-1-yl)-5-methoxycyclo-hexyl)picolinamide]",< 100
5,"O=C(N[C@H]1CCC[C@@H](n2c(-c3ccccc3F)nc3cnc(N4CCCC4)cc32)C1)c1cc(Cl)ccn1 [Example 28, 4-chloro-N-((1S,3R)-3-(2-(2-fluorophenyl)-6-(pyrrolidin-1-yl)-1H-imidazo[4,5-c]pyridin-1-yl)cyclohexyl)picolinamide]",100 to 500
6,"O=C1c2cc(Cl)ccc2OCCN1[C@H]1CCC[C@@H](n2c(-c3ccccc3F)nc3cnc(-c4nc[nH]n4)cc32)C1 [Example 216, 7-chloro-4-((1S,3R)-3-(2-(2-fluorophenyl)-6-(1H-1,2,4-triazol-3-yl)-1H-imidazo[4,5-c]pyridin-1-yl)cyclohexyl)-3,4-dihydrobenzo[f][1,4]oxazepin-5(2H)-one]",> 1000
7,"COc1ccc(C(F)(F)F)cc1C(=O)N[C@H]1CCC[C@@H](n2c(-c3ccccc3F)nc3cnc(-c4nc[nH]n4)cc32)C1 [Example 9, N-((1S,3R)-3-(2-(2-fluorophenyl)-6-(1H-1,2,4-triazol-3-yl)-1H-imidazo[4,5-c]pyridin-1-yl)cyclohexyl)-2-methoxy-5-(trifluoromethyl)benzamide]",< 100
8,"CN1C[C@@H](NC(=O)c2cc(Cl)ccn2)C[C@@H](n2c(-c3ccccc3OCCO)nc3ccc(-c4ncccn4)cc32)C1 [Example 235, 4-chloro-N-((3S,5R)-5-(2-(2-(2-hydroxyethoxy)phenyl)-6-(pyr-imidin-2-yl)-1H-benzo[d]imid-azol-1-yl)-1-methylpiperidin-3-yl)picolinamide]",> 1000
9,CN1C[C@@H](NC(=O)c2cc(F)ccn2)C[C@@H](n2c(-c3ccccc3OC(F)F)nc3cnc(-c4nc[nH]n4)cc32)C1 [compound 140],500 to 1000
10,"CN1C[C@H](NC(=O)c2cc(F)ccn2)C[C@H](n2c(-c3ccccc3OCCO)nc3cnc(-c4ncccn4)cc32)C1 [Example 163, 4-fluoro-N-((3R,5S)-5-(2-(2-(2-hydroxyethoxy)phenyl)-6-(pyrimidin-2-yl)-1H-imidazo[4,5-c]pyridin-1-yl)-1-methylpiperidin-3-yl)picolinamide]",< 100
11,"COc1ccc(Cl)cc1C(=O)N[C@@H]1CCCC[C@H](n2c(-c3c(F)cccc3OC)nc3cnc(-c4nc[nH]n4)cc32)[C@H]1O [Example 109, 5-chloro-N-((1R,2S,3S)-3-(2-(2-fluoro-6-methoxyphenyl)-6-(1H-1,2,4-triazol-3-yl)-1H-imidazo[4,5-c]pyridin-1-yl)-2-hydroxycycloheptyl)-2-methoxybenzamide]",500 to 1000
12,"N[C@@H]1[C@@H](NC(=O)c2cc(F)ccc2F)CCC[C@H]1n1c(-c2ccccc2F)nc2cnc(-c3nc[nH]n3)cc21 [Example 127, N-((1S,2R,3R)-2-amino-3-(2-(2-fluorophenyl)-6-(1H-1,2,4-triazol-3-yl)-1H-imidazo[4,5-c]pyridin-1-yl)cyclohexyl)-2,5-difluorobenzamide]",< 100
13,"O=C(N[C@H]1CCC[C@@H](n2c(-c3ccccc3F)nc3ccc(-c4nc[nH]n4)cc32)[C@@H]1O)c1cc(F)ccc1F [Example 225, 2,5-difluoro-N-((1S,2R,3R)-3-(2-(2-fluorophenyl)-6-(1H-1,2,4-triazol-3-yl)-1H-benzo[d]imid-azol-1-yl)-2-hydroxycyclohex-yl)benzamide]",< 100
14,"CC(CCO)Cc1nc2cnc(-c3nc[nH]n3)cc2n1[C@@H]1CCC[C@H](NC(=O)c2cc(Cl)ccn2)C1 (stereo partly drawn) [Example 95, 4-chloro-N-((1S,3R)-3-(2-(4-hydroxy-2-methylbutyl)-6-(1H-1,2,4-triazol-3-yl)-1H-imidazo[4,5-c]pyridin-1-yl)cyclohexyl)picolinamide]",> 1000
15,COc1ccnc(C(=O)N[C@H]2CCC[C@@H](n3c(-c4ncccc4OC(F)F)nc4cnc(-c5nc[nH]n5)cc43)C2)c1 [compound 64],< 100
16,"O=C(N[C@H]1CCC[C@@H](n2c(-c3ccccc3OC3CCOC3)nc3cnc(-c4nc[nH]n4)cc32)C1)c1cc(Cl)ccn1 (stereo partly drawn) [Example 87, 4-chloro-N-((1S,3R)-3-(2-(2-((tetrahydrofuran-3-yl)oxy)phenyl)-6-(1H-1,2,4-triazol-3-yl)-1H-imidazo[4,5-c]pyridin-1-yl)cyclohexyl)picolinamide]",> 1000
17,"CO[C@H]1C[C@H](NC(=O)c2cc(F)ccc2F)C[C@H](n2c(-c3ccccc3OCCO)nc3cnc(-c4ncco4)cc32)C1 [Example 123, 2,5-difluoro-N-((1R,3S,5S)-3-(2-(2-(2-hydroxyethoxy)phenyl)-6-(oxazol-2-yl)-1H-imidazo[4,5-c]pyridin-1-yl)-5-methoxycyclohexyl)benzamide]",< 100
18,O=C(N[C@H]1CCC[C@@H](n2c(-c3ncccc3OC(F)F)nc3cnc(-c4nc[nH]n4)cc32)C1)c1cc(F)ccn1 [compound 63],< 100
19,"COc1ccc(Cl)cc1C(=O)N[C@H]1CCCC[C@@H](n2c(-c3c(F)cccc3OC)nc3cnc(-c4nc[nH]n4)cc32)[C@@H]1O [Example 110, 5-chloro-N-((1S,2R,3R)-3-(2-(2-fluoro-6-methoxyphenyl)-6-(1H-1,2,4-triazol-3-yl)-1H-imidazo[4,5-c]pyridin-1-yl)-2-hydroxycycloheptyl)-2-methoxybenzamide]",< 100
20,"O=C(N[C@H]1CCC[C@@H](n2c(-c3ccccc3F)nc3cnc(-c4nc[nH]n4)cc32)C1)c1ccc(F)cc1F [Example 75, 2,4-difluoro-N-((1S,3R)-3-(2-(2-fluorophenyl)-6-(1H-1,2,4-triazol-3-yl)-1H-imidazo[4,5-c]pyridin-1-yl)cyclohexyl)benzamide]",< 100
21,"NCCOc1ccc(Cl)cc1C(=O)N[C@H]1CCC[C@@H](n2c(-c3ccccc3F)nc3cnc(-c4nc[nH]n4)cc32)C1 [Example 42, 2-(2-aminoethoxy)-5-chloro-N-((1S,3R)-3-(2-(2-fluorophenyl)-6-(1H-1,2,4-triazol-3-yl)-1H-imidazo[4,5-c]pyridin-1-yl)cyclohexyl)benzamide]",< 100
22,"Cc1coc(-c2cc3c(cn2)nc(-c2ccccc2F)n3[C@@H]2CCC[C@H](N3Cc4ccc(F)cc4C3=O)[C@H]2O)n1 [Example 193, 6-fluoro-2-((1S,2S,3R)-3-(2-(2-fluorophenyl)-6-(4-methyloxazol-2-yl)-1H-imidazo[4,5-c]pyridin-1-yl)-2-hydroxycyclohexyl)isoindolin-1-one]",< 100
23,"CN1C[C@@H](NC(=O)c2cc(Cl)ccc2OCCO)C[C@@H](n2c(-c3ccccc3F)nc3cnc(-c4nc[nH]n4)cc32)C1 [Example 151, 5-chloro-N-((3S,5R)-5-(2-(2-fluorophenyl)-6-(1H-1,2,4-triazol-3-yl)-1H-imidazo[4,5-c]pyridin-1-yl)-1-methylpiperidin-3-yl)-2-(2-hydroxyethoxy)benzamide]",100 to 500
24,"CCN1C[C@H](NC(=O)c2cc(F)ccn2)C[C@H](n2c(-c3ccccc3F)nc3cnc(-c4nc[nH]n4)cc32)C1 [Example 148, N-((3R,5S)-1-ethyl-5-(2-(2-fluorophenyl)-6-(1H-1,2,4-triazol-3-yl)-1H-imidazo[4,5-c]pyridin-1-yl)piperidin-3-yl)-4-fluoropicolinamide]",< 100
